Source: patent publication US20250270172A1, “Pyrimidine Derivatives As Modulators of the 5-HT2A Serotonin Receptor Useful For The Treatment of Disorders Related Thereto” (Arena Pharmaceuticals, Inc., priority 2020, published 2025)

Target: 5-HT2A (Homo sapiens (Human), UniProt P28223)
Assay: Radioligand binding assay, [^3H]5-HT competition, 5-HT2A
Conditions: [^3H]5-HT radioligand, membranes of HEK293 cells expressing recombinant 5-HT2A; Ki from IC50 by Cheng-Prusoff; read-out: 5-HT2A serotonin binding Ki value

5-HT2A, sequence (P28223 whole entry): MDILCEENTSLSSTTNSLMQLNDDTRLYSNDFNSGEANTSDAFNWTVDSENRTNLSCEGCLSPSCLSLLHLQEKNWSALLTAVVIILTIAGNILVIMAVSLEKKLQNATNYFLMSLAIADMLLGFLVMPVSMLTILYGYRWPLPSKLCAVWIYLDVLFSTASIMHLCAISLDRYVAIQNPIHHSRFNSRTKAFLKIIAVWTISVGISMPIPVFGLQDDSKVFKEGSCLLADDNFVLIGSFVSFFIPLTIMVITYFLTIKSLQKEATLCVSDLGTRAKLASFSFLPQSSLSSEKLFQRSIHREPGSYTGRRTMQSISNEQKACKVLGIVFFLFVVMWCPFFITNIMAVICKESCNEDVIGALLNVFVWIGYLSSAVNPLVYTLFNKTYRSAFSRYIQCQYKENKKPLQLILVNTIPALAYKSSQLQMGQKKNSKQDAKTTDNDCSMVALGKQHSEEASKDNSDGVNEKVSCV

| Structure (SMILES) | Ki |
| --- | --- |
| Cc1ncnc(C)c1-c1cc(NC(=O)Cc2ccccc2)ccc1OCCN1CCCC1 [Compound 251, N-(3-(4,6-dimethylpyrimidin-5-yl)-4-(2-(pyrrolidin-1-yl)ethoxy)phenyl)-2-phenylacetamide] | 2.05 nM |
| Cc1ncnc(C)c1-c1cc(NC(=O)C(C)c2ccccc2)ccc1OCCN1CCCC1 (stereo not drawn) [Compound 252, N-(3-(4,6-dimethylpyrimidin-5-yl)-4-(2-(pyrrolidin-1-yl)ethoxy)phenyl)-2-phenylpropanamide] | 9.53 nM |
| Cc1ncnc(C)c1-c1cc(NC(=O)C2(c3ccccc3)CC2)ccc1OCCN1CCCC1 [Compound 253, N-(3-(4,6-dimethylpyrimidin-5-yl)-4-(2-(pyrrolidin-1-yl)ethoxy)phenyl)-1-phenylcyclopropane-1-carboxamide] | 6.34 nM |
| Cc1ncnc(C)c1-c1cc(NC(=O)Cc2ccc(F)cc2)ccc1OCCN1CCCC1 [Compound 254, N-(3-(4,6-dimethylpyrimidin-5-yl)-4-(2-(pyrrolidin-1-yl)ethoxy)phenyl)-2-(4-fluorophenyl)acetamide] | 1.3 nM |
| Cc1ncnc(C)c1-c1cc(NC(=O)CCc2ccccc2)ccc1OCCN1CCCC1 [Compound 255, N-(3-(4,6-dimethylpyrimidin-5-yl)-4-(2-(pyrrolidin-1-yl)ethoxy)phenyl)-3-phenylpropanamide] | 1.72 nM |
| Cc1ncnc(C)c1-c1cc(NC(=O)CCc2cocn2)ccc1OCCN1CCCC1 [Compound 258, N-[3-(4,6-dimethylpyrimidin-5-yl)-4-(2-pyrrolidin-1-ylethoxy)phenyl]-3-oxazol-4-yl-propanamide] | 10.8 nM |
| Cc1nc(CCC(=O)Nc2ccc(OCCN3CCCC3)c(-c3c(C)ncnc3C)c2)co1 [Compound 259, N-[3-(4,6-dimethylpyrimidin-5-yl)-4-(2-pyrrolidin-1-ylethoxy)phenyl]-3-(2-methyloxazol-4-yl)propanamide] | 19.6 nM |
| Cc1ncnc(C)c1-c1cc(NC(=O)Cc2cnco2)ccc1OCCN1CCCC1 [Compound 260, N-[3-(4,6-dimethylpyrimidin-5-yl)-4-(2-pyrrolidin-1-ylethoxy)phenyl]-2-oxazol-5-yl-acetamide] | 63.3 nM |
| Cc1nc(CC(=O)Nc2ccc(OCCN3CCCC3)c(-c3c(C)ncnc3C)c2)no1 [Compound 261, N-(3-(4,6-dimethylpyrimidin-5-yl)-4-(2-(pyrrolidin-1-yl)ethoxy)phenyl)-2-(5-methyl-1,2,4-oxadiazol-3-yl)acetamide] | 91.7 nM |
| Cc1ncnc(C)c1-c1cc(NC(=O)Cc2ccon2)ccc1OCCN1CCCC1 [Compound 262, N-(3-(4,6-dimethylpyrimidin-5-yl)-4-(2-(pyrrolidin-1-yl)ethoxy)phenyl)-2-(isoxazol-3-yl)acetamide] | 35.7 nM |
| Cc1cc(CC(=O)Nc2ccc(OCCN3CCCC3)c(-c3c(C)ncnc3C)c2)on1 [Compound 264, N-(3-(4,6-dimethylpyrimidin-5-yl)-4-(2-(pyrrolidin-1-yl)ethoxy)phenyl)-2-(3-methylisoxazol-5-yl)acetamide] | 9.18 nM |
| Cc1noc(CC(=O)Nc2ccc(OCCN3CCCC3)c(-c3c(C)ncnc3C)c2)n1 [Compound 265, N-(3-(4,6-dimethylpyrimidin-5-yl)-4-(2-(pyrrolidin-1-yl)ethoxy)phenyl)-2-(3-methyl-1,2,4-oxadiazol-5-yl)acetamide] | 18.2 nM |
| Cc1ncnc(C)c1-c1cc(NC(=O)Cc2cc(C)n(C)n2)ccc1OCCN1CCCC1 [Compound 267, 2-(1,5-dimethyl-1H-pyrazol-3-yl)-N-(3-(4,6-dimethylpyrimidin-5-yl)-4-(2-(pyrrolidin-1-yl)ethoxy)phenyl)acetamide] | 692 nM |
| Cc1ncnc(C)c1-c1cc(NC(=O)Cc2ccn(C)n2)ccc1OCCN1CCCC1 [Compound 269, N-[3-(4,6-dimethylpyrimidin-5-yl)-4-(2-pyrrolidin-1-ylethoxy)phenyl]-2-(1-methylpyrazol-3-yl)acetamide] | 559 nM |
| Cc1ncnc(C)c1-c1cc(NC(=O)CCc2ccn(C)n2)ccc1OCCN1CCCC1 [Compound 270, N-[3-(4,6-dimethylpyrimidin-5-yl)-4-(2-pyrrolidin-1-ylethoxy)phenyl]-3-(1-methylpyrazol-3-yl)propanamide] | 51.6 nM |
| COc1cccc(CC(=O)Nc2ccc(OCCN3CCCC3)c(-c3c(C)ncnc3C)c2)c1 [Compound 274, N-(3-(4,6-dimethylpyrimidin-5-yl)-4-(2-(pyrrolidin-1-yl)ethoxy)phenyl)-2-(3-methoxyphenyl)acetamide] | 3.92 nM |
| Cc1ncnc(C)c1-c1cc(NC(=O)Cc2cncc(F)c2)ccc1OCCN1CCCC1 [Compound 277, N-(3-(4,6-dimethylpyrimidin-5-yl)-4-(2-(pyrrolidin-1-yl)ethoxy)phenyl)-2-(5-fluoropyridin-3-yl)acetamide] | 33.4 nM |
| Cc1ncnc(C)c1-c1cc(NC(=O)Cc2ccc(F)cn2)ccc1OCCN1CCCC1 [Compound 278, N-(3-(4,6-dimethylpyrimidin-5-yl)-4-(2-(pyrrolidin-1-yl)ethoxy)phenyl)-2-(5-fluoropyridin-2-yl)acetamide] | 32.6 nM |
| Cc1ncnc(C)c1-c1cc(N(C)C(=O)C2CC2)ccc1OCCN1CCCC1 [Compound 279, N-[3-(4,6-dimethylpyrimidin-5-yl)-4-(2-pyrrolidin-1-ylethoxy)phenyl]-N-methyl-cyclopropanecarboxamide] | 65800 nM |
| Cc1ncnc(C)c1-c1cc(N(C)C(=O)c2ccnn2C)ccc1OCCN1CCCC1 [Compound 280, N-[3-(4,6-dimethylpyrimidin-5-yl)-4-(2-pyrrolidin-1-ylethoxy)phenyl]-N,2-dimethyl-pyrazole-3-carboxamide] | 65800 nM |
| Cc1ncnc(C)c1-c1cc(NC(=O)CCF)ccc1OCCN1CCCC1 [Compound 281, N-[3-(4,6-dimethylpyrimidin-5-yl)-4-(2-pyrrolidin-1-ylethoxy)phenyl]-3-fluoro-propanamide] | 30.6 nM |
| Cc1ncnc(C)c1-c1cc(NC(=O)CCCF)ccc1OCCN1CCCC1 [Compound 282, N-[3-(4,6-dimethylpyrimidin-5-yl)-4-(2-pyrrolidin-1-ylethoxy)phenyl]-4-fluoro-butanamide] | 8.84 nM |
| Cc1ncnc(C)c1-c1cc(NC(=O)C2(O)CC2)ccc1OCCN1CCCC1 [Compound 283, N-[3-(4,6-dimethylpyrimidin-5-yl)-4-(2-pyrrolidin-1-ylethoxy)phenyl]-1-hydroxy-cyclopropanecarboxamide] | 24 nM |
| COC(C)(C)C(=O)Nc1ccc(OCCN2CCCC2)c(-c2c(C)ncnc2C)c1 [Compound 284, N-[3-(4,6-dimethylpyrimidin-5-yl)-4-(2-pyrrolidin-1-ylethoxy)phenyl]-2-methoxy-2-methyl-propanamide] | 87.5 nM |
| CCOC1(C(=O)Nc2ccc(OCCN3CCCC3)c(-c3c(C)ncnc3C)c2)CC1 [Compound 285, N-[3-(4,6-dimethylpyrimidin-5-yl)-4-(2-pyrrolidin-1-ylethoxy)phenyl]-1-ethoxy-cyclopropanecarboxamide] | 33.4 nM |
| COC1(C(=O)Nc2ccc(OCCN3CCCC3)c(-c3c(C)ncnc3C)c2)CCC1 [Compound 286, N-[3-(4,6-dimethylpyrimidin-5-yl)-4-(2-pyrrolidin-1-ylethoxy)phenyl]-1-methoxy-cyclobutanecarboxamide] | 10.1 nM |
| Cc1ncnc(C)c1-c1cc(NC(=O)CN2CCCC2)ccc1OCCN1CCCC1 [Compound 287, N-[3-(4,6-dimethylpyrimidin-5-yl)-4-(2-pyrrolidin-1-ylethoxy)phenyl]-2-pyrrolidin-1-yl-acetamide] | 3250 nM |
